Measurements published in patent US10099993B2, “Metabotropic glutamate receptor positive allosteric modulators (PAMS) and uses thereof” (Sanford-Burnham Medical Research Institute, priority 2014, dated 2018).

Key:
mGlu2 = mGlu2 (Rattus norvegicus (Rat), UniProt P31421); experiment: mGlu2 GIRK thallium flux assay; conditions: for Emax: read-out: mGlu2 PAM Max; for EC50: read-out: mGlu2 PAM EC50, PAM mode, test compound, then EC20 glutamate […] later in the presence of thallium, mean ± SEM, at least three experiments;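 as to all read-outs here: Cell-based assay, rate of fluorescence rise right after thallium plus agonist addition read on a kinetic imaging plate reader, normalized to vehicle and maximal agonist control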
mGlu2, sequence (P31421 19-872): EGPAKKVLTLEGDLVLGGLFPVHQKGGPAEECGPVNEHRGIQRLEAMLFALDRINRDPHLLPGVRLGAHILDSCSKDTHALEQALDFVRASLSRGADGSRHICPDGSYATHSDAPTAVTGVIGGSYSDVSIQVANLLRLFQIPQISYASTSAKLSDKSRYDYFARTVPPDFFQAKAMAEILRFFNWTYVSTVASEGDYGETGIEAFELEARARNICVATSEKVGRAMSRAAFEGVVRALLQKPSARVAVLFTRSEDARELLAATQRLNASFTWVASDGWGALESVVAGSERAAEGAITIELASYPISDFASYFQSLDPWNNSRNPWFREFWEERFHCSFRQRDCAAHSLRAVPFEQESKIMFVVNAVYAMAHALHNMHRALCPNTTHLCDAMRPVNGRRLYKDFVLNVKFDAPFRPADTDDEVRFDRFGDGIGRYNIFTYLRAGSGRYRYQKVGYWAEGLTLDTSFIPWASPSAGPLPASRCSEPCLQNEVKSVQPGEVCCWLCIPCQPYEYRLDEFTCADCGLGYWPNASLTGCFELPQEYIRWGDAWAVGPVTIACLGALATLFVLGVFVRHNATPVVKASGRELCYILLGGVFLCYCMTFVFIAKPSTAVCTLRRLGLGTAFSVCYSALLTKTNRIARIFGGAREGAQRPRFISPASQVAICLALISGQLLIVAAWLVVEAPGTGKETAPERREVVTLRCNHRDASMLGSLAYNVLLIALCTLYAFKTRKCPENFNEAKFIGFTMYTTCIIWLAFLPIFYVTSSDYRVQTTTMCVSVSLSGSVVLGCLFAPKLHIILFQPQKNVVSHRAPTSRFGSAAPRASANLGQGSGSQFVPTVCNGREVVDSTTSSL

mGlu3 = mGlu3 (Rattus norvegicus (Rat), UniProt P31422); experiment: mGlu3 GIRK thallium flux assay; conditions: for Emax: read-out: mGlu3 PAM Max; for EC50: read-out: mGlu3 PAM EC50, PAM mode, test compound, then EC20 glutamate […] later in the presence of thallium, mean ± SEM;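 as to all read-outs here: kinetic fluorescence slope read shortly after thallium plus agonist addition, scaled between vehicle and maximal agonist control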
mGlu3, sequence (P31422 23-879): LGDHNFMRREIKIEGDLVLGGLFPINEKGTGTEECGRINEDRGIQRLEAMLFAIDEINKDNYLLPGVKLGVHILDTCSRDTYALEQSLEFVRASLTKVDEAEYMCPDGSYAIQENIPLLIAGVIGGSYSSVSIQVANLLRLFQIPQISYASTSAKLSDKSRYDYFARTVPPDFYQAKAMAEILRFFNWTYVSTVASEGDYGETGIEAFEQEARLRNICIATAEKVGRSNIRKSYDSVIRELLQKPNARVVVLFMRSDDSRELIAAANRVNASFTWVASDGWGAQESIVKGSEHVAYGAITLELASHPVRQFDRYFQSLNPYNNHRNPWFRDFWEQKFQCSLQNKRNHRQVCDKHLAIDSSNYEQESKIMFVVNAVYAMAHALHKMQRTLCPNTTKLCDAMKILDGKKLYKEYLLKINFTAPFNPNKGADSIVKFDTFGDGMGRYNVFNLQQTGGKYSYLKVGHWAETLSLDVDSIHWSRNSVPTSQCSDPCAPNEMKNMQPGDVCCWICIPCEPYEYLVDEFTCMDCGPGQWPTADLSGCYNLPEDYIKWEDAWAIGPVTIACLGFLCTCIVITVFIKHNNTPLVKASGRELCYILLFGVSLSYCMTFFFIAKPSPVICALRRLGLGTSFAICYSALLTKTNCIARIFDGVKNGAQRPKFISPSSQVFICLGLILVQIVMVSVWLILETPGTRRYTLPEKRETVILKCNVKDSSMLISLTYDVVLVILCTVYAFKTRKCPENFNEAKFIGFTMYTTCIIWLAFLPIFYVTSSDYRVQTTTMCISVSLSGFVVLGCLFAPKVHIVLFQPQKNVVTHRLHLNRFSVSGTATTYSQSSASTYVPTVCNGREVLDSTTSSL

Row | Compound | Emax (mGlu2) | Emax (mGlu3) | EC50 (mGlu2) | EC50 (mGlu3)
1 | CC(C)(C)CC(=O)c1ccc(OCc2cccc(-c3cccc(C(=O)O)c3)c2)c(Br)c1O [Compound 193, 3′-((2-Bromo-4-(3,3-dimethylbutanoyl)-3-hydroxyphenoxy)methyl)-[1,1′-biphenyl]-3-carboxylic acid] | 79.5 ± 20.8% | 74 ± 9.5% |  | 
2 | Cc1c(OCCCCOc2ccccn2)ccc(C(=O)CC2CCCC2)c1C [Compound 194] |  |  | > 10 µM | > 30 µM
3 | Cc1c(OCCCCOc2ccc(C#N)cc2)ccc(C(=O)CC2CCCC2)c1C [compound 76] |  |  | > 30 µM | > 30 µM
4 | Cc1c(OCCCCOc2ccc(C#N)cc2)ccc(C(=O)CC(C)C)c1C [compound 77] |  |  | > 30 µM | > 30 µM
5 | COC(=O)CCc1cc(OCCCCOc2ccc(C(=O)CC(C)C)c(O)c2C)ccc1O [compound 85] |  |  | > 10 µM | > 30 µM
6 | COC(=O)CCc1cc(OCCCCOc2ccc(C(=O)CC3CCCC3)c(O)c2C)ccc1O [compound 86] |  |  | > 10 µM | > 30 µM
7 | COc1ccc(B2OC(C)(C)C(C)(C)O2)cc1OCCCCOc1ccc(C(=O)CC(C)(C)C)c(O)c1C [compound 87, 1-(2-Hydroxy-4-(4-(2-methoxy-5-(4,4,5,5-tetramethyl-1,3,2-dioxaborolan-2-yl)phenoxy)butoxy)-3-methylphenyl)-3,3-dimethylbutan-1-one] | 49.5 ± 3.5% | 24.9 ± 9.6% |  | 
8 | COc1cc(C(=O)NO)ccc1OCCCCOc1ccc(C(=O)CC(C)(C)C)c(O)c1C [compound 88, 4-(4-(4-(3,3-Dimethylbutanoyl)-3-hydroxy-2-methylphenoxy)butoxy)-N-hydroxy-3-methoxybenzamide] | 86.4 ± 2.6% | 53.5 ± 10.6% | 2.42 ± 0.278 µM | 5.46 ± 0.184 µM
9 | CONC(=O)c1ccc(OC)c(OCCCCOc2ccc(C(=O)CC(C)(C)C)c(O)c2C)c1 [compound 90, 3-(4-(4-(3,3-Dimethylbutanoyl)-3-hydroxy-2-methylphenoxy)butoxy)-N,4-dimethoxybenzamide] | 82.4 ± 3.4% | 78.7 ± 6.2% | 3.89 ± 0.317 µM | 6.6 ± 1.45 µM
10 | COc1ccc(C#N)cc1OCCCCOc1ccc(C(=O)CC(C)(C)C)c(O)c1C [compound 91, 3-(4-(4-(3,3-Dimethylbutanoyl)-3-hydroxy-2-methylphenoxy)butoxy)-4-methoxybenzonitrile] | 48.2 ± 7.4% | 33.7 ± 7.4% | > 10 µM | > 30 µM
11 | COc1ccc(-c2nnn[nH]2)cc1OCCCCOc1ccc(C(=O)CC(C)(C)C)c(O)c1C [compound 92, 1-(2-Hydroxy-4-(4-(2-methoxy-5-(1H-tetrazol-5-yl)phenoxy)butoxy)-3-methylphenyl)-3,3-dimethylbutan-1-one] | 91.2 ± 1.1% | 96.7 ± 4% |  | 
12 | COc1ccc(C(=O)NS(C)(=O)=O)cc1OCCCCOc1ccc(C(=O)CC(C)(C)C)c(O)c1C [compound 93, 3-(4-(4-(3,3-Dimethylbutanoyl)-3-hydroxy-2-methylphenoxy)butoxy)-4-methoxy-N-(methylsulfonyl)benzamide] | 98.1 ± 1.1% | 110 ± 1.3% | 0.25 ± 0.055 µM | 0.265 ± 0.05 µM
13 | Cc1c(OCCCCOc2ccc3c(c2)B(O)OC3)ccc(C(=O)CC(C)(C)C)c1O [compound 94, 1-(2-Hydroxy-4-(4-((1-hydroxy-1,3-dihydrobenzo [c][1,2]oxaborol-6-yl)oxy)butoxy)-3-methylphenyl)-3,3-dimethylbutan-1-one] | 83.9 ± 3.4% | 94 ± 3.8% |  | 
14 | COc1ccc(B(O)O)cc1OCCCCOc1ccc(C(=O)CC(C)(C)C)c(O)c1C [compound 95, (3-(4-(4-(3,3-Dimethylbutanoyl)-3-hydroxy-2-methylphenoxy)butoxy)-4-methoxyphenyl)boronic acid] | 27.5 ± 2.7% | 26.2 ± 11.7% | 3.01 ± 0.988 µM | > 30 µM
15 | COc1ccc(C(=O)O)cc1OCCCCOc1ccc(C(=O)CCC(C)(C)C)c(O)c1C [compound 96, 3-(4-(4-(4,4-Dimethylpentanoyl)-3-hydroxy-2-methylphenoxy)butoxy)-4-methoxybenzoic acid] | 88.6 ± 0.9% | 95.3 ± 5% |  | 
